Experimental data reported in paper PMC2806265, “Divergence of allosteric effects of rapacuronium on binding and function of muscarinic receptors” (BMC Pharmacology, 2009).
Marks after values point to notes of the source that are not given here.

How the values were obtained:
M2 muscarinic receptor [1] = molecular target: T1, M2 muscarinic receptor (Homo sapiens, UniProt P08172); test: [3H]NMS dissociation
T1 sequence (P08172 1-466): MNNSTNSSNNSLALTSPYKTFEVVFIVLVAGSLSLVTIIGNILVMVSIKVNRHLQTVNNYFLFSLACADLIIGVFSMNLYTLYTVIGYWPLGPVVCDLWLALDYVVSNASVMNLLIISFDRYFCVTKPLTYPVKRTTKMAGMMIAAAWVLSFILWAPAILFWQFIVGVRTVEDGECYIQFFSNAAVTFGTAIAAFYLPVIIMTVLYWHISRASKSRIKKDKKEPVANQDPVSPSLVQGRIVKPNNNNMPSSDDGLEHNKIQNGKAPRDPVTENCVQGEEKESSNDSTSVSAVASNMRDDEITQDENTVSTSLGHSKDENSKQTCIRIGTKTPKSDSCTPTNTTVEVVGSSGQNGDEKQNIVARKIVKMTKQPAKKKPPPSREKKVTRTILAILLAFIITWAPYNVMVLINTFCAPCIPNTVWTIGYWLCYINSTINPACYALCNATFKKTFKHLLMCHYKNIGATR
Text: (§2) y, radioligand binding at time x normalized to binding at time 0; koff1 and koff2, dissociation rate constants; f2, fraction of binding site with dissociation rate constant koff2. When both Eq. 7a and 7b were fitted to data the better fit was chosen based on sum of squares F-test and runs test.

M1 muscarinic receptor [2] = molecular target: T2, M1 muscarinic receptor (Homo sapiens, UniProt P11229); test: [3H]ACh saturation binding
T2 construct: host or cells: CHO cells, stably transfected; membrane preparation
T2 sequence (P11229 1-460): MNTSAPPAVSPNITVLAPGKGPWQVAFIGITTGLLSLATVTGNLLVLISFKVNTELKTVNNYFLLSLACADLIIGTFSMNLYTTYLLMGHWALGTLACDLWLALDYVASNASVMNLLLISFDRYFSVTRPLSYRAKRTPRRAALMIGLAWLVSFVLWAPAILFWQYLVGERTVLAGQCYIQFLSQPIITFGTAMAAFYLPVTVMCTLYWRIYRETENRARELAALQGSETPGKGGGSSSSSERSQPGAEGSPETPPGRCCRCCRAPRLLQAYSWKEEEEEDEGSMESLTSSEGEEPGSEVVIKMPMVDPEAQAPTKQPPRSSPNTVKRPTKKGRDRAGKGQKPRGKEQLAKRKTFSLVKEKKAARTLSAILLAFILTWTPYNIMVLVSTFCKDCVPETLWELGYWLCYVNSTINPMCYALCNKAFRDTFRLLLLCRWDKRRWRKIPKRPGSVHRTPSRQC
Text: BMAX, maximum binding capacity; KD, equilibrium dissociation constant.

M5 muscarinic receptor = molecular target: T3, M5 muscarinic receptor (Homo sapiens, UniProt P08912); test: [3H]NMS dissociation
T3 sequence (P08912 1-532): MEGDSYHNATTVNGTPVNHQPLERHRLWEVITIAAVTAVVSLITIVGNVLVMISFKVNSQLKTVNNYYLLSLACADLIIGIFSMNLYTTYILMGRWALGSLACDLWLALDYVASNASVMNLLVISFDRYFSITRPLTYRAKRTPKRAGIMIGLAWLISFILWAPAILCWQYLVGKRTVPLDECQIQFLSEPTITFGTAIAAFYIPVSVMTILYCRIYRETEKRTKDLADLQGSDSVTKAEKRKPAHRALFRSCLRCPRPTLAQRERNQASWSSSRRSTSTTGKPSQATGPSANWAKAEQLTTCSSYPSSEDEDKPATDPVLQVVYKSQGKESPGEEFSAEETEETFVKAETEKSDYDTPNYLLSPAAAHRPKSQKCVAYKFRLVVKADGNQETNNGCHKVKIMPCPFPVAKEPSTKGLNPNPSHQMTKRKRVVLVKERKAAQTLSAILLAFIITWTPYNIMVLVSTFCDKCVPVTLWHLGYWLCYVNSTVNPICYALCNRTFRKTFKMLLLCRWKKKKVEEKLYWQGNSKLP
Text: as §2

M3 muscarinic receptor [3] = molecular target: T4, M3 muscarinic receptor (Homo sapiens, UniProt P20309); test: Effect of rapacuronium on 1 nM [3H]NMS binding
T4 construct: host or cells: CHO cells, stably transfected; membranes
T4 sequence (P20309 whole entry): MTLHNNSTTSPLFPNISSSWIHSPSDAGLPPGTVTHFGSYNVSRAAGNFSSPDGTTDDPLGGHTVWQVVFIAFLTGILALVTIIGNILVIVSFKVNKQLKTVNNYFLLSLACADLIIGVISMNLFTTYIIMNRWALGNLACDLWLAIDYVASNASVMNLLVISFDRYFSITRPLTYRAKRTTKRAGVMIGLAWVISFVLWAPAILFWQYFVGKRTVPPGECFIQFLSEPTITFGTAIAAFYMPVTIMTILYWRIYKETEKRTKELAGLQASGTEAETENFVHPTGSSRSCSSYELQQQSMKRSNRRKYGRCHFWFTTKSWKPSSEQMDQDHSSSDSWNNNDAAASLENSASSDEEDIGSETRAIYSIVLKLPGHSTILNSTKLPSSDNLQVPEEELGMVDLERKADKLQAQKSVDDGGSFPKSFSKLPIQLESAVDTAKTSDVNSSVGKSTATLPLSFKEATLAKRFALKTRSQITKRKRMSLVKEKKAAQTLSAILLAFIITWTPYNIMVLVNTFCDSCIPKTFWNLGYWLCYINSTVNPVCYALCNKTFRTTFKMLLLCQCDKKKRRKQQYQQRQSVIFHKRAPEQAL
Text: (§1) Cooperativity factor greater than 1 denotes negative cooperativity and less than 1 positive cooperativity. Due to its log-normal error distribution factors of cooperativity are expressed as negative logarithms (pα) through the manuscript so negative values denotes negative cooperativity and positive value denotes positive cooperativity.

M1 muscarinic receptor [4] = molecular target: T2, M1 muscarinic receptor; test: Effect of rapacuronium on 1 nM [3H]NMS binding
Text: as §1

M2 muscarinic receptor [5] = molecular target: T1, M2 muscarinic receptor; test: Effect of rapacuronium on high-affinity 20 nM [3H]ACh binding; parameters: host or cells: CHO cells, stably transfected; membrane preparation
Text: as §1

M4 muscarinic receptor = molecular target: T5, M4 muscarinic receptor (Homo sapiens, UniProt P08173); test: [35S]GTPγS binding to membranes; assay type: biochemical; parameters: host or cells: CHO cells, stably transfected; membranes; details: for EMAX of ACh on [^35S]GTPγS binding: fold of basal
T5 sequence (P08173 1-479): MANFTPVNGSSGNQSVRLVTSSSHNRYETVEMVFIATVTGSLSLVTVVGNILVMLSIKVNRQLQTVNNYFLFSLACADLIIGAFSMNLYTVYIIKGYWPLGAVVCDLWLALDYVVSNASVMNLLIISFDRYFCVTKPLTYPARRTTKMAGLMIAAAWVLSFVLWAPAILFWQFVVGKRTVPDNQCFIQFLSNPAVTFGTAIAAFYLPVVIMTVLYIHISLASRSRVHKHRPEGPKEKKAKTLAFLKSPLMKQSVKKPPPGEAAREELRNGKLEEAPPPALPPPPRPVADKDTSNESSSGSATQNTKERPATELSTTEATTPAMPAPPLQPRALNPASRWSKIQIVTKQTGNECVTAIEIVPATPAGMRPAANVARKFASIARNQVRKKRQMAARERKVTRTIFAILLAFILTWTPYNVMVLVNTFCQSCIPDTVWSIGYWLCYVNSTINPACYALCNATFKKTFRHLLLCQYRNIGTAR
Description: (§3) For determination of [^35S]GTPγS binding to G-proteins in membranes a final concentration of 200 pM (M1, M3 and M5 receptors) or 500 pM (M2 and M4 receptors) of [^35S]GTPγS was used. Incubation medium was supplemented with 5 μM (M1, M3 and M5 receptors) or 50 μM (M2 and M4 receptors) GDP. […] Incubation with [^35S]GTPγS was carried out for 20 min and free ligand was removed by filtration as described above. Filtration and washing with ice-cold water lasted for 9 s (wash-aspirate button time).

M3 muscarinic receptor [6] = molecular target: T4, M3 muscarinic receptor; test: biochemical; details: for EMAX of ACh on [^35S]GTPγS binding: fold of basal
Description: as §3

[7] = system: M1 to M5 muscarinic receptors; test: [35S]GTPγS binding, statements over several subtypes; details: rapacuronium alone
Description: as §3

[8] = read-out: pKA of rapacuronium (converted)

## C=CC[N+]1([C@H]2C[C@H]3[C@@H]4CC[C@H]5C[C@H](OC(C)=O)[C@@H](N6CCCCC6)C[C@]5(C)[C@H]4CC[C@]3(C)[C@H]2OC(=O)CC)CCCCC1 [rapacuronium]
M2 muscarinic receptor [1]; 100 μM rapacuronium
  decrease in rate of [^3H]NMS dissociation: 7 fold
M2 muscarinic receptor [1]; + 100 μM rapacuronium
  f2, fraction of sites with faster dissociation: 23 ± 5%
  koff1 of [^3H]NMS dissociation: 0.026 ± 0.002* min^-1
  koff2 of [^3H]NMS dissociation: 0.0127 ± 0.00183 s⁻¹
M1 muscarinic receptor [2]; + 10 μM rapacuronium
  BMAX of [^3H]ACh: 0.33 ± 0.05 fmol/μg of protein
M1 muscarinic receptor [2]; + 100 μM rapacuronium
  BMAX of [^3H]ACh: 0.32 ± 0.05 fmol/μg of protein
M5 muscarinic receptor; 100 μM rapacuronium
  decrease in rate of [^3H]NMS dissociation: 40%
M5 muscarinic receptor; + 100 μM rapacuronium, monophasic
  koff1 of [^3H]NMS dissociation: 0.0078 ± 0.0004* min^-1
M3 muscarinic receptor [3]; M3, negative value = negative cooperativity
  pα, cooperativity with [^3H]NMS: -1.11 ± 0.05
M3 muscarinic receptor [3]; [8]
  Kd: 17.8 µM
M1 muscarinic receptor [4]; M1, negative value = negative cooperativity
  pα, cooperativity with [^3H]NMS: -1.08 ± 0.05
M1 muscarinic receptor [4]; [8]
  Kd: 4.27 µM
M2 muscarinic receptor [5]; M2, negative value = negative cooperativity
  pα, cooperativity with [^3H]ACh high affinity binding: -1.46 ± 0.08
M2 muscarinic receptor [5]; [8]
  Kd: 2.82 µM
M4 muscarinic receptor
  EC50: 36.3 µM
M4 muscarinic receptor; M4, + 0.1 μM rapacuronium
  EMAX of ACh on [^35S]GTPγS binding: 2.95 ± 0.11
M4 muscarinic receptor; M4, + 1 μM rapacuronium
  EMAX of ACh on [^35S]GTPγS binding: 2.80 ± 0.12
M4 muscarinic receptor; M4, + 10 μM rapacuronium
  EMAX of ACh on [^35S]GTPγS binding: 2.32 ± 0.16
M4 muscarinic receptor; M4, rapacuronium alone, normalized to absence of rapacuronium
  EMAX of rapacuronium on [^35S]GTPγS binding: 0.86 ± 0.06
M3 muscarinic receptor [6]; 0.1 μM rapacuronium
  decrease in ACh EC50: 2 fold
M3 muscarinic receptor [6]; 1 μM rapacuronium
  decrease in ACh EC50: 2 fold
M3 muscarinic receptor [6]; 10 μM rapacuronium
  increase in ACh EC50: about 3 fold
M3 muscarinic receptor [6]; + 0.1 μM rapacuronium
  EMAX of ACh on [^35S]GTPγS binding: 2.78 ± 0.11
M3 muscarinic receptor [6]; + 1 μM rapacuronium
  EMAX of ACh on [^35S]GTPγS binding: 2.52 ± 0.08
M3 muscarinic receptor [6]; + 10 μM rapacuronium
  EMAX of ACh on [^35S]GTPγS binding: 2.12 ± 0.09
M3 muscarinic receptor [6]; rapacuronium alone, normalized to absence of rapacuronium
  EMAX of rapacuronium on [^35S]GTPγS binding: 0.75 ± 0.07
M3 muscarinic receptor [6]; rapacuronium alone, read-out: EC50 of lowering [^35S]GTPγS binding
  EC50: 76 µM
M3 muscarinic receptor [6]; read-out: increase in ACh EMAX, 0.1 μM rapacuronium
  Emax at 0.1 µM: ~60%
M3 muscarinic receptor [6]; read-out: increase in ACh EMAX, 1 μM rapacuronium
  Emax at 1 µM: ~35%
[7]; even-numbered subtypes
  maximal lowering of [^35S]GTPγS binding: ~15%
[7]; odd-numbered subtypes
  maximal lowering of [^35S]GTPγS binding: approximately 25%
